From BigSolDB 2.1

C=CC1=C(C(=O)O)N2C(=O)[C@@H](NC(=O)/C(=N\OCC(=O)O)c3csc(N)n3)[C@H]2SC1.O.O.O
solubility (mole fraction)
Settings | 278.15 K | 283.15 K | 288.15 K | 293.15 K | 298.15 K | 303.15 K | 308.15 K | 313.15 K | 318.15 K | 323.15 K
in acetone | 0.00223 | 0.00276 | 0.00308 | 0.00346 | 0.004 | 0.0044 | 0.00518 | 0.00581 | 0.00701 | 0.00854
in ethanol | 0.00189 | 0.0021 | 0.00246 | 0.00285 | 0.00321 | 0.0037 | 0.00415 | 0.00478 | 0.00536 | 0.00632
in ethyl acetate | 0.000678 | 0.000747 | 0.000971 | 0.00116 | 0.00139 | 0.00159 | 0.00185 | 0.00226 | 0.00257 | 0.00334
in isopropanol | 0.000918 | 0.00105 | 0.00128 | 0.00148 | 0.00178 | 0.00195 | 0.0023 | 0.00255 | 0.00291 | 0.0035
in n-butanol | 0.000983 | 0.00102 | 0.00122 | 0.00151 | 0.00172 | 0.002 | 0.00249 | 0.00293 | 0.00343 | 0.00437
in n-pentanol | 0.000403 | 0.00051 | 0.000602 | 0.000779 | 0.00101 | 0.00136 | 0.00152 | 0.00191 | 0.00255 | 0.003
in sec-butanol | 0.000899 | 0.000995 | 0.00119 | 0.00143 | 0.0015 | 0.00173 | 0.00211 | 0.00234 | 0.00276 | 0.00316
